Results reported in patent publication US8969294B2 (Istituto di Recerche di Biologia Molecolare P. Angeletti …, priority 2008, dated 2015).
Numbered stars: 1 amine (or outer) side, 2 acyl side, 3 side chain; on linkers, the order of the positions; unused ones are H or OH. Bridge positions count the residues as written; N and C are the ends. Square brackets hold non-standard residues; d marks the D form. Side chains are listed from the residue outwards. Peptide text beside a SMILES is read from it. * marks the point of attachment. γGlu = O=C(O)[C@H](CCC(=O)[*:2])N[*:1]; Palmitoyl = CCCCCCCCCCCCCCCC(=O)*; Aib = CC(C)(N)C(=O)O

Biological target: glucagon receptor (Homo sapiens, UniProt P47871)
Test: Functional assay, cAMP synthesis: luciferase reporter in HEK293 cells co-transfected with glucagon receptor
Conditions: EC50, Glucagon receptor, Table 18
Description: Peptide absorbance readings were obtained from UV Absorbance measurements at 280 nm on a Genesys 6 Spectrophotometer (Thermo Electron Corporation). Beer's Law was used to calculate solution concentrations based on the number of tryptophan and tyrosine residues in each analog. At the end of the incubation, 100 μL LucLite luminescence substrate reagent was added to each well, the plate sealed and shaken, and placed into a Wallac Trilux luminescence counter for cAMP detection.
HEK293 cells were co-transfected with the GcgR or GLP-1R cDNAs and a luciferase reporter gene-linked to a cAMP response element (CRE). […] The plate was incubated for 10 min in the dark and light output was quantified on a MicroBeta1450 liquid scintillation counter (Perkin-Elmer, Wellesley, Mass.).

glucagon receptor, sequence (P47871 26-477): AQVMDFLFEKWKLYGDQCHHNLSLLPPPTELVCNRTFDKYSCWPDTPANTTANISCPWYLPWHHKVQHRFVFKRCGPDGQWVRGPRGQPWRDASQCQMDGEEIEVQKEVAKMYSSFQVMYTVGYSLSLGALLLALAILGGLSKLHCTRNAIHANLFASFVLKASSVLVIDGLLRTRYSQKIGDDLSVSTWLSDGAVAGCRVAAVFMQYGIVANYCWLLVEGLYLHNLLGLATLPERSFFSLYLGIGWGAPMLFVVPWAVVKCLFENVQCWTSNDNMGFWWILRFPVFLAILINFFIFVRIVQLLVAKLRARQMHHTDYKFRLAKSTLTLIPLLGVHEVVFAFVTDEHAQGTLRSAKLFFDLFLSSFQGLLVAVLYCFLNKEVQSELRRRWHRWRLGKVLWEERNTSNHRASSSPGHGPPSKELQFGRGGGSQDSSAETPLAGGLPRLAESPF

| SMILES | EC50 [nM] |
| --- | --- |
| CSCC[C@H](NC(=O)[C@H](CC(C)C)NC(=O)[C@H](Cc1c[nH]c2ccccc12)NC(=O)[C@H](CC(N)=O)NC(=O)[C@@H](NC(=O)[C@H](Cc1ccccc1)NC(=O)[C@H](CCC(=O)O)NC(=O)[C@@H]1CCCCNC(=O)CC[C@H](NC(=O)[C@H](CC(=O)O)NC(=O)[C@H](CC(C)C)NC(=O)[C@H](Cc2ccc(O)cc2)NC(=O)[C@H](CCCCN)NC(=O)[C@H](CO)NC(=O)[C@H](Cc2ccc(O)cc2)NC(=O)[C@H](CC(=O)O)NC(=O)[C@H](CO)NC(=O)[C@@H](NC(=O)[C@H](Cc2ccccc2)NC(=O)[C@@H](NC(=O)CNC(=O)[C@H](CCC(N)=O)NC(=O)[C@H](CO)NC(=O)[C@@H](N)Cc2ccc(O)cc2)[C@@H](C)O)[C@@H](C)O)C(=O)N[C@@H](CCC(N)=O)C(=O)N[C@@H](C)C(=O)N[C@@H](C)C(=O)N1)C(C)C)C(=O)N[C@@H](CC(N)=O)C(=O)NCC(=O)NCC(=O)N1CCC[C@H]1C(=O)N[C@@H](CO)C(=O)N[C@@H](CO)C(=O)NCC(=O)N[C@@H](C)C(=O)N1CCC[C@H]1C(=O)N1CCC[C@H]1C(=O)N1CCC[C@H]1C(=O)N[C@@H](CO)C(N)=O [SEQ ID NO: 555] (H-YSQGTFTSDYSKYLDEQAAKEFVNWLMNGGPSSGAPPPS-NH2; lactam 16-20; N-terminus assumed) | 0.044 |

Same assay, conditions: EC50 at Glucagon Receptor, Table 31

| SMILES | EC50 [nM] |
| --- | --- |
| CCCCCCCCCCCCCCCC(=O)N[C@@H](CCC(=O)N[C@@H](CCC(=O)NCCCC[C@H](NC(=O)[C@H](CC(=O)O)NC(=O)[C@H](CO)NC(=O)[C@@H](NC(=O)[C@H](Cc1ccccc1)NC(=O)[C@@H](NC(=O)CNC(=O)[C@H](CCC(N)=O)NC(=O)[C@@H](CO)NC(=O)[C@@H](N)Cc1c[nH]cn1)[C@@H](C)O)[C@@H](C)O)C(=O)N[C@@H](CO)C(=O)N[C@@H](CCCCN)C(=O)N[C@@H](Cc1ccc(O)cc1)C(=O)N[C@@H](CC(C)C)C(=O)N[C@@H](CC(=O)O)C(=O)N[C@@H](CCC(=O)O)C(=O)N[C@@H](CCC(N)=O)C(=O)N[C@@H](C)C(=O)N[C@@H](C)C(=O)N[C@@H](CCCCN)C(=O)N[C@@H](CCC(=O)O)C(=O)N[C@@H](Cc1ccccc1)C(=O)N[C@H](C(=O)N[C@@H](C)C(=O)N[C@@H](Cc1c[nH]c2ccccc12)C(=O)N[C@@H](CC(C)C)C(=O)N[C@@H](CCSC)C(=O)N[C@@H](CC(N)=O)C(=O)N[C@H](C(N)=O)[C@@H](C)O)[C@@H](C)CC)C(=O)O)C(=O)O [compound 644] | 0.008 |
| CCCCCCCCCCCCCCCC(=O)N[C@@H](CCC(=O)NCCCC[C@H](NC(=O)[C@H](CC(=O)O)NC(=O)[C@H](CO)NC(=O)[C@@H](NC(=O)[C@H](Cc1ccccc1)NC(=O)[C@@H](NC(=O)CNC(=O)[C@H](CCC(N)=O)NC(=O)C(C)(C)NC(=O)[C@@H](N)Cc1c[nH]cn1)[C@@H](C)O)[C@@H](C)O)C(=O)N[C@@H](CO)C(=O)N[C@@H](CCCCN)C(=O)N[C@@H](Cc1ccc(O)cc1)C(=O)N[C@@H](CC(C)C)C(=O)N[C@@H](CC(=O)O)C(=O)N[C@@H](CCC(=O)O)C(=O)N[C@@H](CCC(N)=O)C(=O)N[C@@H](C)C(=O)N[C@@H](C)C(=O)N[C@@H](CCCCN)C(=O)N[C@@H](CCC(=O)O)C(=O)N[C@@H](Cc1ccccc1)C(=O)N[C@H](C(=O)N[C@@H](C)C(=O)N[C@@H](Cc1c[nH]c2ccccc12)C(=O)N[C@@H](CC(C)C)C(=O)N[C@@H](CCSC)C(=O)N[C@@H](CC(N)=O)C(=O)N[C@H](C(N)=O)[C@@H](C)O)[C@@H](C)CC)C(=O)O [compound 645] | 0.025 |
| CCCCCCCCCCCCCCCC(=O)NCCCC[C@H](NC(=O)[C@H](CC(=O)O)NC(=O)[C@H](CO)NC(=O)[C@@H](NC(=O)[C@H](Cc1ccccc1)NC(=O)[C@@H](NC(=O)CNC(=O)[C@H](CCC(=O)O)NC(=O)C(C)(C)NC(=O)[C@@H](N)Cc1c[nH]cn1)[C@@H](C)O)[C@@H](C)O)C(=O)N[C@@H](CO)C(=O)N[C@@H](CCCCN)C(=O)N[C@@H](Cc1ccc(O)cc1)C(=O)N[C@@H](CC(C)C)C(=O)N[C@@H](CC(=O)O)C(=O)N[C@@H](CCC(=O)O)C(=O)N[C@@H](CCC(N)=O)C(=O)N[C@@H](C)C(=O)N[C@@H](C)C(=O)N[C@@H](CCCCN)C(=O)N[C@@H](CCC(=O)O)C(=O)N[C@@H](Cc1ccccc1)C(=O)N[C@H](C(=O)N[C@@H](C)C(=O)N[C@@H](Cc1c[nH]c2ccccc12)C(=O)N[C@@H](CC(C)C)C(=O)N[C@@H](CCSC)C(=O)N[C@@H](CC(N)=O)C(=O)N[C@H](C(N)=O)[C@@H](C)O)[C@@H](C)CC [compound 647] (H-H[Aib]EGTFTSDK(Palmitoyl)SKYLDEQAAKEFIAWLMNT-NH2; N-terminus assumed) | 46.1 |
| CCCCCCCCCCCCCCCC(=O)N[C@@H](CCC(=O)N[C@@H](CCC(=O)NCCCC[C@H](NC(=O)[C@H](CC(=O)O)NC(=O)[C@H](CO)NC(=O)[C@@H](NC(=O)[C@H](Cc1ccccc1)NC(=O)[C@@H](NC(=O)CNC(=O)[C@H](CCC(=O)O)NC(=O)C(C)(C)NC(=O)[C@@H](N)Cc1c[nH]cn1)[C@@H](C)O)[C@@H](C)O)C(=O)N[C@@H](CO)C(=O)N[C@@H](CCCCN)C(=O)N[C@@H](Cc1ccc(O)cc1)C(=O)N[C@@H](CC(C)C)C(=O)N[C@@H](CC(=O)O)C(=O)N[C@@H](CCC(=O)O)C(=O)N[C@@H](CCC(N)=O)C(=O)N[C@@H](C)C(=O)N[C@@H](C)C(=O)N[C@@H](CCCCN)C(=O)N[C@@H](CCC(=O)O)C(=O)N[C@@H](Cc1ccccc1)C(=O)N[C@H](C(=O)N[C@@H](C)C(=O)N[C@@H](Cc1c[nH]c2ccccc12)C(=O)N[C@@H](CC(C)C)C(=O)N[C@@H](CCSC)C(=O)N[C@@H](CC(N)=O)C(=O)N[C@H](C(N)=O)[C@@H](C)O)[C@@H](C)CC)C(=O)O)C(=O)O [compound 648] (H-H[Aib]EGTFTSDK([γGlu-γGlu-Palmitoyl])SKYLDEQAAKEFIAWLMNT-NH2; N-terminus assumed) | 2.92 |
| CCCCCCCCCCCCCCCC(=O)N[C@@H](CCC(=O)N[C@@H](CCC(=O)NCCCC[C@H](NC(=O)[C@H](CC(=O)O)NC(=O)[C@H](CO)NC(=O)[C@@H](NC(=O)[C@H](Cc1ccccc1)NC(=O)[C@@H](NC(=O)CNC(=O)[C@H](CCC(N)=O)NC(=O)C(C)(C)NC(=O)[C@@H](N)Cc1c[nH]cn1)[C@@H](C)O)[C@@H](C)CC)C(=O)N[C@@H](CO)C(=O)N[C@@H](CCCCN)C(=O)N[C@@H](Cc1ccc(O)cc1)C(=O)N[C@@H](CC(C)C)C(=O)N[C@@H](CC(=O)O)C(=O)N[C@@H](CCC(=O)O)C(=O)N[C@@H](CCC(N)=O)C(=O)N[C@@H](C)C(=O)N[C@@H](C)C(=O)N[C@@H](CCCCN)C(=O)N[C@@H](CCC(=O)O)C(=O)N[C@@H](Cc1ccccc1)C(=O)N[C@H](C(=O)N[C@@H](C)C(=O)N[C@@H](Cc1c[nH]c2ccccc12)C(=O)N[C@@H](CC(C)C)C(=O)N[C@@H](CCSC)C(=O)N[C@@H](CC(N)=O)C(=O)N[C@H](C(N)=O)[C@@H](C)O)[C@@H](C)CC)C(=O)O)C(=O)O [compound 650] | 0.007 |
